Laboratory results published in US10596150B2, “Antifungal agents” (F2G LIMITED, priority 2014, dated 2020).
Values after ≈ are worked out from the molar mass of the structure shown.

Columns and labels:
[1] = test system: L. prolificans FMR 3569; assay: Lomentospora prolificans FMR 3569 disseminated infection model (survival, tissue burden); assay type: in vivo, Male OF-1 mice; conditions: VRC 25 mg/kg p.o. QD; Example 1 20 mg/k p.o. BID; from day 1 after challenge for 9 days
Protocol: L. prolificans (also known as Scedosporium prolificans or S. prolificans) was grown on Potato Dextrose Agar (PDA) for 5 days at 35° C. On the day of infection, cultures were flooded with sterile saline and filtered through sterile gauze to remove clumps of conidia and hyphae. The resulting suspensions were adjusted by haemocytometer count and by serial plating to confirm viability.
Male OF-1 mice with a mean weight of 30 g were used in the experiment. Mice were housed in standard boxes with food and water ad libitum.
Mice were rendered neutropenic two days prior to infection by an intraperitoneal (i.p.) injection of 200 mg/kg of cyclophosphamide, and once every 5 days thereafter (Clemons et al, 2005).
Mice were challenged with 5×10^4 CFU/animal of L. prolificans FMR 3569, in a volume of 0.2 ml of sterile saline into the lateral tail vein.
Treatments consisted of (a) voriconazole (VRC) (Vfend; Pfizer S. A., Madrid, Spain) at 25 mg/kg p.o, by gavage QD; (b) Example 1 at 20 mg/k, p.o, by gavage BID; and (c) no treatment. From 3 days before infection, mice that received VRC were given grapefruit juice instead of water (Sugar & Liu, 2001). All treatments began 1 day after challenge, and the therapy lasted for 9 days. Controls received no treatment.
For survival studies groups of 10 mice were randomly established for each therapy. Mortality was recorded daily until the end of the experiment. […]

[2] = test system: Scedosporium prolifican 15848; assay: Minimum Inhibitory Concentration (MIC), RPMI medium; assay type: cell-based
Protocol: (§1) Between 1 and 5 mgs of the compound were accurately weighed out into a sterile Eppendorf tube. The compound was dissolved in DMSO to give a solution containing 5 mg/mL. Tubes were stored at −20° C. until required.
(§2) On the day of testing thawed solutions were vortex mixed to ensure homogeneity. 30 μL of solution was removed and added to 570 μL of sterile water in a separate sterile Eppendorf. The thoroughly mixed solution was used to prepare a series of doubling dilutions in water, in a deep well plate. Thirteen replicate plates were prepared using a Minitrak by aspirating 20 μL from each well into eleven clear polystyrene 96 well plates.
(§3) Spores of Aspergillus and Scedosporium were harvested from cultures grown on Sabarauds agar for 5 days, and resuspended in PBS/Tween 80 to approx 1×10^7 cfu/mL. Each organism suspension was diluted in RPMI medium, containing 2% glucose and 0.135 M MOPS buffer (pH 7.0) to 0.5-2×10^4 cfu/mL. 80 μL of an organism suspension was added to each well of the plate containing drug dilutions.
(§4) This produced MIC plates with a drug range 50-0.05 mg/L and organism inocula of 1-2×10^4 cfu/mL. All plates were incubated for 24-48 h at 35° C. Growth was assessed by monitoring the optical density at 485 nm for each well. The MIC of a compound is the lowest drug concentration that inhibits growth of an organism by >80% compared with a drug free control.

[3] = test system: Scedosporium prolifican 7935; assay: as above; assay type: cell-based
Protocol: as §1, §2, §3, §4

[4] = test system: Scedosporium prolifican 1121; assay: as above; assay type: cell-based
Protocol: as §1, §2, §3, §4

[5] = test system: Scedosporium apiospermum 8353; assay: as above; assay type: cell-based
Protocol: as §1, §2, §3, §4

[6] = test system: Scedosporium apiospermum 7935; assay: as above; assay type: cell-based
Protocol: as §1, §2, §3, §4

[7] = test system: A. niger; assay: as above; assay type: cell-based; conditions: Aspergillus niger, >80% growth inhibition
Protocol: as §1, §2, §3, §4

[8] = test system: Scedosporium prolifican 13486; assay: as above; assay type: cell-based
Protocol: as §1, §2, §3, §4

[9] = test system: A. flavus; assay: as above; assay type: cell-based; conditions: Aspergillus flavus, >80% growth inhibition
Protocol: as §1, §2, §3, §4

[10] = test system: Scedosporium apiospermum 13486; assay: as above; assay type: cell-based
Protocol: as §1, §2, §3, §4

[11] = test system: Scedosporium apiospermum 4883; assay: as above; assay type: cell-based
Protocol: as §1, §2, §3, §4

[12] = test system: Scedos apiospermum 1124; assay: as above; assay type: cell-based; conditions: Scedosporium apiospermum
Protocol: as §1, §2, §3, §4

[13] = test system: A. terreus 49; assay: as above; assay type: cell-based; conditions: Aspergillus terreus, >80% growth inhibition
Protocol: as §1, §2, §3, §4

[14] = test system: Scedosporium prolifican 201; assay: as above; assay type: cell-based
Protocol: as §1, §2, §3, §4

[15] = test system: Scedosporium species 15849; assay: as above; assay type: cell-based
Protocol: as §1, §2, §3, §4

[16] = test system: A. terreus; assay: as above; assay type: cell-based; conditions: Aspergillus terreus, >80% growth inhibition
Protocol: as §1, §2, §3, §4

[17] = test system: Scedosporium prolificans 206; assay: as above; assay type: cell-based; conditions: Lomentospora prolificans
Protocol: as §1, §2, §3, §4

[18] = test system: A. fumigatus; assay: as above; assay type: cell-based; conditions: Aspergillus fumigatus, >80% growth inhibition
Protocol: as §1, §2, §3, §4

[19] = test system: A. fumigatus 210; assay: as above; assay type: cell-based; conditions: Aspergillus fumigatus, >80% growth inhibition
Protocol: as §1, §2, §3, §4

[20] = test system: Scedosporium prolifican 8353; assay: as above; assay type: cell-based
Protocol: as §1, §2, §3, §4

[21] = test system: Scedosporium prolifican 451; assay: as above; assay type: cell-based
Protocol: as §1, §2, §3, §4

[22] = test system: Scedosporium prolifican 4883; assay: as above; assay type: cell-based
Protocol: as §1, §2, §3, §4

[23] = test system: Scedosporium prolificans 6322; assay: as above; assay type: cell-based; conditions: Lomentospora prolificans
Protocol: as §1, §2, §3, §4

[24] = test system: Scedosporium prolifican 15849; assay: as above; assay type: cell-based
Protocol: as §1, §2, §3, §4

[25] = test system: Scedosporium apiospermum 15848; assay: as above; assay type: cell-based
Protocol: as §1, §2, §3, §4

[26] = test system: Scedosporium prolificans 18389; assay: as above; assay type: cell-based; conditions: Lomentospora prolificans
Protocol: as §1, §2, §3, §4

[27] = test system: Scedosporium apiospermum 451; assay: as above; assay type: cell-based
Protocol: as §1, §2, §3, §4

SMILES: Cc1cc(-c2ccccc2)c(C(=O)C(=O)Nc2ccc(N3CCN(c4ncc(F)cn4)CC3)cc2)n1C [Example 1, 2-(1,5-dimethyl-3-phenyl-1H-pyrrol-2-yl)-N-(4-(4-(5-fluoropyrimidin-2-yl)piperazin-1-yl)phenyl)-2-oxoacetamide]
- survival rates compared with the control (FIG. 7) [1]: improved survival rates
- MIC [2]: 0.02 to 0.04 µg/mL (≈ 0.0401 to 0.0802 µM)
- MIC [3]: 0.01 to 0.02 µg/mL (≈ 0.0201 to 0.0401 µM)
- MIC [4]: ≤ 0.005 µg/mL
- MIC [5]: 0.005 to 0.01 µg/mL (≈ 0.01 to 0.0201 µM)
- MIC [6]: 0.01 to 0.02 µg/mL (≈ 0.0201 to 0.0401 µM)
- MIC [7]: 0.01 to 0.02 µg/mL (≈ 0.0201 to 0.0401 µM)
- MIC [8]: 0.02 to 0.04 µg/mL (≈ 0.0401 to 0.0802 µM)
- MIC [9]: 0.005 to 0.01 µg/mL (≈ 0.01 to 0.0201 µM)
- MIC Scedosporium apiospermum 13486 [10]: D (A grade of D represents an MIC of greater than 0.02 mg/L but less than or equal to 0.04 mg/L)
- MIC ([10]; Scedosporium apiospermum, 13486): 0.02 to 0.04 µg/mL (≈ 0.0401 to 0.0802 µM)
- MIC [11]: 0.01 to 0.02 µg/mL (≈ 0.0201 to 0.0401 µM)
- MIC [12]: ≤ 0.005 µg/mL
- MIC [13]: ≤ 0.005 µg/mL
- MIC [14]: 0.02 to 0.04 µg/mL (≈ 0.0401 to 0.0802 µM)
- MIC [15]: 0.04 to 0.06 µg/mL (≈ 0.0802 to 0.12 µM)
- MIC [16]: ≤ 0.005 µg/mL
- MIC [17]: 0.02 to 0.04 µg/mL (≈ 0.0401 to 0.0802 µM)
- MIC [18]: 0.01 to 0.02 µg/mL (≈ 0.0201 to 0.0401 µM)
- MIC [19]: 0.01 to 0.02 µg/mL (≈ 0.0201 to 0.0401 µM)
- MIC [20]: 0.005 to 0.01 µg/mL (≈ 0.01 to 0.0201 µM)
- MIC [21]: 0.005 to 0.01 µg/mL (≈ 0.01 to 0.0201 µM)
- MIC [22]: 0.01 to 0.02 µg/mL (≈ 0.0201 to 0.0401 µM)
- MIC [23]: 0.02 to 0.04 µg/mL (≈ 0.0401 to 0.0802 µM)
- MIC [24]: 0.04 to 0.06 µg/mL (≈ 0.0802 to 0.12 µM)
- MIC [25]: 0.02 to 0.04 µg/mL (≈ 0.0401 to 0.0802 µM)
- MIC [26]: 0.01 to 0.02 µg/mL (≈ 0.0201 to 0.0401 µM)
- MIC [27]: 0.005 to 0.01 µg/mL (≈ 0.01 to 0.0201 µM)
